The record followed here is patent EP0178682A2, “1,3-Bis(1H-1,2,4-triazol-1-yl)-2-fluoro-2-(2,4-difluorophenyl)propane, antifungal composition containing it, and process for preparation of the compound and the composition” (SCHERING CORPORATION, priority 1984, dated 1986).

≈ marks a conversion by molar mass, not a printed value. Where two headings read alike, the source gives them in different places.

Assay [1] concerns a large number of fungi. Put plainly: conventional antifungal screening test, in vitro, Sabourand broth medium. It counts as cell-based.
The test system of assay [2] is six strains of Candida. In words: in vitro antifungal activity (MIC) in Eagles medium. It counts as cell-based. The settings on record: for MIC: six strains of Candida.
For assay [3], the system named is Candida albicans. Put plainly: mouse Candida albicans oral infection model. It counts as in vivo. The conditions noted are these: compared to ketoconazole.

In the case of `Fc1ccc(C(F)(Cn2cncn2)Cn2cncn2)c(F)c1` [compound of this invention, 1,3-Bis(1H-1,2,4-triazol-1-yl)-2-(2,4-difluorophenyl)-2-fluoro-propane], in assay [1], the “in vitro activity against a large number of fungi” value was “negligible in vitro activity”. The “in vitro activity against six strains of Candida compared to ketoconazole” value in assay [2] was “significantly lower in vitro activity”. In assay [2] (after 48 hours, read-out: mean Minimum Inhibitory Concentration (MIC)), the MIC was determined as 4 µg/mL (≈ 13 µM). Besides, the “preventive dosage required for survival of 100% of the test animals” value in assay [3] is recorded as “lower than that required for ketoconazole”.
For `CC(=O)N1CCN(c2ccc(OCC3COC(Cn4ccnc4)(c4ccc(Cl)cc4Cl)O3)cc2)CC1` (stereo not drawn) [ketoconazole, reference compound], the “in vitro activity against a large number of fungi” value in assay [1] was “negligible in vitro activity”. Also, in assay [2] (read-out: MIC), the MIC was less than 0.031 µg/mL.
